In ChEMBL document CHEMBL1201861, “Genomics of Drug Sensitity in Cancer screening data, Wellcome Trust Sanger Institute”:

Legend:
Test in all cases: cells
Conditions in all cases: Homo sapiens
ES7 = type: functional, cell-based;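 also: growth inhibition of cultured human ES7 cells, read out as cell viability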
Description: SANGER: Inhibition of human ES7 cell growth in a cell viability assay.

NB69 = type: functional, cell-based;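 also: growth inhibition of NB69 cells, determined by a cell viability assay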
Description: SANGER: Inhibition of human NB69 cell growth in a cell viability assay.

OS-RC-2 = type: functional, cell-based;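 also: growth inhibition of human OS-RC-2 cells, measured by a cell viability assay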
Description: SANGER: Inhibition of human OS-RC-2 cell growth in a cell viability assay.

CW-2 = type: functional, cell-based;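 also: growth inhibition of CW-2 cells, read out by a cell viability assay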
Description: SANGER: Inhibition of human CW-2 cell growth in a cell viability assay.

SJSA-1 = type: functional, cell-based;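 also: growth inhibition of human SJSA-1 cells, read out through a cell viability measurement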
Description: SANGER: Inhibition of human SJSA-1 cell growth in a cell viability assay.

K5 = type: functional, cell-based
Description: SANGER: Inhibition of human K5 cell growth in a cell viability assay.

NMC-G1 = type: functional, cell-based;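 also: growth inhibition of the NMC-G1 cell line, measured with a cell viability read-out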
Description: SANGER: Inhibition of human NMC-G1 cell growth in a cell viability assay.

HCE-4 = type: functional, cell-based;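 also: cell viability assay measuring inhibition of growth in the human HCE-4 cell line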
Description: SANGER: Inhibition of human HCE-4 cell growth in a cell viability assay.

BB30-HNC = type: functional, cell-based;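 also: growth inhibition of the cultured cell line, read out by a cell viability assay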
Description: SANGER: Inhibition of human BB30-HNC cell growth in a cell viability assay.

BB65-RCC = type: functional, cell-based;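 also: growth inhibition of the cell line, measured with a cell viability assay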
Description: SANGER: Inhibition of human BB65-RCC cell growth in a cell viability assay.

NH-12 = type: functional, cell-based;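 also: growth inhibition of NH-12 cells, read out with a cell viability assay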
Description: SANGER: Inhibition of human NH-12 cell growth in a cell viability assay.

LU-139 = type: functional, cell-based
Description: SANGER: Inhibition of human LU-139 cell growth in a cell viability assay.

TE-1 = type: functional, cell-based
Description: SANGER: Inhibition of human TE-1 cell growth in a cell viability assay.

COLO-668 = type: functional, cell-based
Description: SANGER: Inhibition of human COLO-668 cell growth in a cell viability assay.

CAS-1 = type: functional, cell-based;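 also: growth inhibition of CAS-1 cells, measured with a cell viability assay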
Description: SANGER: Inhibition of human CAS-1 cell growth in a cell viability assay.

QIMR-WIL = type: functional, cell-based;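 also: growth inhibition of QIMR-WIL cells, read out with a cell viability assay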
Description: SANGER: Inhibition of human QIMR-WIL cell growth in a cell viability assay.

EW-16 = type: functional, cell-based;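 also: growth inhibition of human EW-16 cells, read out as cell viability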
Description: SANGER: Inhibition of human EW-16 cell growth in a cell viability assay.

NCI-H2126 = type: functional, cell-based;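 also: growth inhibition of the cancer cell line, determined with a cell viability readout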
Description: SANGER: Inhibition of human NCI-H2126 cell growth in a cell viability assay.

LS-123 = type: functional, cell-based
Description: SANGER: Inhibition of human LS-123 cell growth in a cell viability assay.

KM12 = type: functional, cell-based;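 also: KM12 cell growth inhibition, read out with a cell viability assay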
Description: SANGER: Inhibition of human KM12 cell growth in a cell viability assay.

LB2241-RCC = type: functional, cell-based;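 also: cell viability assay measuring how strongly the cultured human renal carcinoma line is prevented from growing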
Description: SANGER: Inhibition of human LB2241-RCC cell growth in a cell viability assay.

HCE-T = type: functional, cell-based;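 also: cell viability assay read-out, reporting inhibition of HCE-T cell growth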
Description: SANGER: Inhibition of human HCE-T cell growth in a cell viability assay.

KGN = type: functional, cell-based;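 also: growth inhibition of KGN cells, read out with a cell viability assay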
Description: SANGER: Inhibition of human KGN cell growth in a cell viability assay.

LC-2-ad = type: functional, cell-based;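 also: growth inhibition of human LC-2-ad cells, read out with a cell viability assay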
Description: SANGER: Inhibition of human LC-2-ad cell growth in a cell viability assay.

TE-11 = type: functional, cell-based;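 also: growth inhibition of human TE-11 cells, read out by a cell viability assay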
Description: SANGER: Inhibition of human TE-11 cell growth in a cell viability assay.

SW684 = type: functional, cell-based;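 also: growth inhibition of human SW684 cells, measured by a cell viability assay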
Description: SANGER: Inhibition of human SW684 cell growth in a cell viability assay.

MFH-ino = type: functional, cell-based;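 also: growth inhibition of human MFH-ino cells, read out by a cell viability assay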
Description: SANGER: Inhibition of human MFH-ino cell growth in a cell viability assay.

LB771-HNC = type: functional, cell-based;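 also: growth inhibition of LB771-HNC human cells, read out with a cell viability assay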
Description: SANGER: Inhibition of human LB771-HNC cell growth in a cell viability assay.

P30-OHK = type: functional, cell-based;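 also: growth inhibition of the P30-OHK cell line, read out with a cell viability assay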
Description: SANGER: Inhibition of human P30-OHK cell growth in a cell viability assay.

SNU-5 = type: functional, cell-based;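 also: cell viability readout used to measure growth inhibition in human NCI-SNU-5 cells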
Description: SANGER: Inhibition of human NCI-SNU-5 cell growth in a cell viability assay.

EW-1 = type: functional, cell-based
Description: SANGER: Inhibition of human EW-1 cell growth in a cell viability assay.

COR-L88 = type: functional, cell-based;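 also: growth inhibition of COR-L88 cells, read out with a cell viability assay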
Description: SANGER: Inhibition of human COR-L88 cell growth in a cell viability assay.

EM-2 = type: functional, cell-based;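 also: growth inhibition of EM-2 cells, read out with a cell viability assay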
Description: SANGER: Inhibition of human EM-2 cell growth in a cell viability assay.

NCI-H226 = type: functional, cell-based;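 also: cell viability read-out used to gauge growth inhibition of the cells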
Description: SANGER: Inhibition of human NCI-H226 cell growth in a cell viability assay.

A3-KAW = type: functional, cell-based;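 also: growth inhibition of human A3-KAW cells, read out with a cell viability assay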
Description: SANGER: Inhibition of human A3-KAW cell growth in a cell viability assay.

COLO-829 = type: functional, cell-based
Description: SANGER: Inhibition of human COLO-829 cell growth in a cell viability assay.

SW872 = type: functional, cell-based;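 also: growth inhibition of SW872 cells, read out by a viability assay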
Description: SANGER: Inhibition of human SW872 cell growth in a cell viability assay.

ALL-PO = type: functional, cell-based;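 also: growth inhibition of ALL-PO cells, read out by a cell viability assay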
Description: SANGER: Inhibition of human ALL-PO cell growth in a cell viability assay.

EW-18 = type: functional, cell-based;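 also: growth inhibition of EW-18 cells, read out by a cell viability assay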
Description: SANGER: Inhibition of human EW-18 cell growth in a cell viability assay.

SF-539 = type: functional, cell-based;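 also: Read-out is a cell viability assay, with IC50 reflecting inhibition of cell growth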
Description: SANGER: Inhibition of human SF539 cell growth in a cell viability assay.

D283 Med = type: functional, cell-based
Description: SANGER: Inhibition of human D-283MED cell growth in a cell viability assay.

LS-1034 = type: functional, cell-based
Description: SANGER: Inhibition of human LS-1034 cell growth in a cell viability assay.

MHH-NB-11 = type: functional, cell-based;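 also: growth inhibition of human MHH-NB-11 cells, read out by a cell viability assay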
Description: SANGER: Inhibition of human MHH-NB-11 cell growth in a cell viability assay.

NCI-H23 = type: functional, cell-based;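 also: cell viability assay measuring growth inhibition of NCI-H23 cells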
Description: SANGER: Inhibition of human NCI-H23 cell growth in a cell viability assay.

U-87 MG = type: functional, cell-based, U-87MG ATCC;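 also: growth inhibition of the cells measured with a viability assay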
Description: SANGER: Inhibition of human U-87-MG cell growth in a cell viability assay.

IA-LM = type: functional, cell-based;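 also: cell viability assay measuring growth inhibition of human IA-LM cells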
Description: SANGER: Inhibition of human IA-LM cell growth in a cell viability assay.

EW-3 = type: functional, cell-based;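 also: cell viability assay read-out, IC50 reflects inhibition of growth of the EW-3 cells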
Description: SANGER: Inhibition of human EW-3 cell growth in a cell viability assay.

MPP-89 = type: functional, cell-based;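 also: growth inhibition of human MPP-89 cells, read out with a cell viability assay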
Description: SANGER: Inhibition of human MPP-89 cell growth in a cell viability assay.

ML-2 = type: functional, cell-based;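 also: growth inhibition of ML-2 cells, measured with a cell viability readout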
Description: SANGER: Inhibition of human ML-2 cell growth in a cell viability assay.

8-MG-BA = type: functional, cell-based;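 also: growth inhibition of 8-MG-BA cells, read out with a cell viability assay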
Description: SANGER: Inhibition of human 8-MG-BA cell growth in a cell viability assay.

A4-Fuk = type: functional, cell-based;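 also: growth inhibition of A4-Fuk cells, read out by a cell viability assay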
Description: SANGER: Inhibition of human A4-Fuk cell growth in a cell viability assay.

HT-144 = type: functional, cell-based
Description: SANGER: Inhibition of human HT-144 cell growth in a cell viability assay.

NCI-H209 = type: functional, cell-based;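 also: growth inhibition of human NCI-H209 cells, measured by a cell viability assay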
Description: SANGER: Inhibition of human NCI-H209 cell growth in a cell viability assay.

TE-8 = type: functional, cell-based;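 also: growth inhibition of TE-8 cells, measured with a cell viability readout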
Description: SANGER: Inhibition of human TE-8 cell growth in a cell viability assay.

NCI-H1581 = type: functional, cell-based;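 also: cell growth inhibition read out by a viability assay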
Description: SANGER: Inhibition of human NCI-H1581 cell growth in a cell viability assay.

A498 = type: functional, cell-based;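 also: growth inhibition of human A498 cells, read out with a cell viability assay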
Description: SANGER: Inhibition of human A498 cell growth in a cell viability assay.

NB13 = type: functional, cell-based;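 also: cell viability readout measuring growth inhibition of human NB13 cells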
Description: SANGER: Inhibition of human NB13 cell growth in a cell viability assay.

HOP-62 = type: functional, cell-based;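 also: cell growth inhibition determined with a viability assay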
Description: SANGER: Inhibition of human HOP-62 cell growth in a cell viability assay.

ACN = type: functional, cell-based;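 also: growth inhibition of the human ACN cell line, read out via cell viability testing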
Description: SANGER: Inhibition of human ACN cell growth in a cell viability assay.

DOHH-2 = type: functional, cell-based;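 also: growth inhibition of human DOHH-2 cells, read out with a cell viability assay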
Description: SANGER: Inhibition of human DOHH-2 cell growth in a cell viability assay.

PSN1 = type: functional, cell-based
Description: SANGER: Inhibition of human PSN1 cell growth in a cell viability assay.

D-502MG = type: functional, cell-based
Description: SANGER: Inhibition of human D-502MG cell growth in a cell viability assay.

LS-411N = type: functional, cell-based
BV-173 = type: functional, cell-based
Description: SANGER: Inhibition of human BV-173 cell growth in a cell viability assay.

SK-LMS-1 = type: functional, cell-based
Description: SANGER: Inhibition of human SK-LMS-1 cell growth in a cell viability assay.

CTB-1 = type: functional, cell-based
Description: SANGER: Inhibition of human CTB-1 cell growth in a cell viability assay.

SMILES: Cc1n[nH]c2ccc(-c3cncc(OC[C@@H](N)Cc4c[nH]c5ccccc45)c3)cc12 [A-443654]
- IC50 (ES7): > 1020 nM
- IC50 (NB69): 227 nM
- IC50 (OS-RC-2): 175 nM
- IC50 (CW-2): > 1020 nM
- IC50 (SJSA-1): 376 nM
- IC50 (K5): 428 nM
- IC50 (NMC-G1): 880 nM
- IC50 (HCE-4): 104 nM
- IC50 (BB30-HNC): 220 nM
- IC50 (BB65-RCC): 597 nM
- IC50 (NH-12): > 1020 nM
- IC50 (LU-139): 367 nM
- IC50 (TE-1): 111 nM
- IC50 (COLO-668): 405 nM
- IC50 (CAS-1): > 1020 nM
- IC50 (QIMR-WIL): 256 nM
- IC50 (EW-16): 216 nM
- IC50 (NCI-H2126): 309 nM
- IC50 (LS-123): 337 nM
- IC50 (KM12): 141 nM
- IC50 (LB2241-RCC): > 1020 nM
- IC50 (HCE-T): 451 nM
- IC50 (KGN): 118 nM
- IC50 (LC-2-ad): 22.2 nM
- IC50 (TE-11): 130 nM
- IC50 (SW684): > 1020 nM
- IC50 (MFH-ino): 236 nM
- IC50 (LB771-HNC): 222 nM
- IC50 (P30-OHK): > 1020 nM
- IC50 (SNU-5): > 1020 nM
- IC50 (EW-1): 221 nM
- IC50 (COR-L88): 738 nM
- IC50 (EM-2): 583 nM
- IC50 (NCI-H226): > 1020 nM
- IC50 (A3-KAW): 196 nM
- IC50 (COLO-829): > 1020 nM
- IC50 (SW872): 255 nM
- IC50 (ALL-PO): 797 nM
- IC50 (EW-18): > 1020 nM
- IC50 (SF-539): > 1020 nM
- IC50 (D283 Med): > 1020 nM
- IC50 (LS-1034): 630 nM
- IC50 (MHH-NB-11): > 1020 nM
- IC50 (NCI-H23): > 1020 nM
- IC50 (U-87 MG): > 1020 nM
- IC50 (IA-LM): 200 nM
- IC50 (EW-3): > 1020 nM
- IC50 (MPP-89): 485 nM
- IC50 (ML-2): 192 nM
- IC50 (8-MG-BA): 163 nM
- IC50 (A4-Fuk): 103 nM
- IC50 (HT-144): 153 nM
- IC50 (NCI-H209): 246 nM
- IC50 (TE-8): 137 nM
- IC50 (NCI-H1581): 606 nM
- IC50 (A498): > 1020 nM
- IC50 (NB13): 332 nM
- IC50 (HOP-62): 140 nM
- IC50 (ACN): 909 nM
- IC50 (DOHH-2): 240 nM
- IC50 (PSN1): 47.3 nM
- IC50 (D-502MG): > 1020 nM
- IC50 (LS-411N): 87.5 nM
- IC50 (BV-173): 269 nM
- IC50 (SK-LMS-1): 276 nM
- IC50 (CTB-1): 509 nM
